From ChEMBL document CHEMBL1201862, “PubChem BioAssay data set” (2004)
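Grown in 96-well plates, cells were treated for 48 hours with each compound at five concentrations. Insufficient inhibition: endpoint recorded as highest concentration tested. Abbreviation: GI50, concentration required for 50% inhibition of growth.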 Active and inactive are the calls of the source. Cut-off read from the data, not from the text of the source: active = GI50 up to about 1.1 µM and inactive = higher.

Legend:
Assay in all cases: NCI-60 cell line screen, 48 h
OVCAR-4 = system: OVCAR-4
NCI-H522 = system: NCI-H522
DMS-114 = system: DMS-114
NCI-H226 = system: NCI-H226
CCRF-CEM = system: CCRF-CEM
ACHN = system: ACHN
UO-31 = system: UO-31
SN12C = system: SN12C
HCT-15 = system: HCT-15
NCI-H460 = system: NCI-H460
HCC 2998 = system: HCC 2998
SNB-19 = system: SNB-19
SW-620 = system: SW-620
OVCAR-8 = system: OVCAR-8
SNB-75 = system: SNB-75
CAKI-1 = system: CAKI-1
RXF 393 = system: RXF 393
BT-549 = system: BT-549
MCF7 = system: MCF7
T47D = system: T47D

Measured: GI50

N/N=C(/C(=O)Nc1cccc(Cl)c1)C(C(=O)c1ccc(O)cc1O)C1OC(=O)c2ccccc21 (configuration not stated)
inactive: OVCAR-4 > 100 µM | NCI-H522 71 µM | DMS-114 > 100 µM | NCI-H226 95.1 µM | CCRF-CEM 35.1 µM | ACHN > 100 µM | UO-31 > 100 µM | SN12C > 100 µM | NCI-H460 52.2 µM | HCC 2998 > 100 µM | SNB-19 68.2 µM | SW-620 > 100 µM | OVCAR-8 > 100 µM
> 100 µM: HCT-15

Cc1cc(O)nc(NNC(C#N)c2c(O)ccc3ccccc23)n1 (configuration not stated)
1.82 µM: HCT-15
inactive: OVCAR-4 3.32 µM | SNB-75 15 µM | NCI-H522 8.89 µM | DMS-114 2.87 µM | NCI-H226 4.14 µM | CCRF-CEM 1.73 µM | ACHN 1.8 µM | CAKI-1 3.18 µM | UO-31 1.73 µM | SN12C 3.18 µM | NCI-H460 2.89 µM | SW-620 4.56 µM | RXF 393 10.4 µM | OVCAR-8 3.1 µM

COc1ccc(CNc2cc(OC)c(OC)c(OC)c2)cc1
3.52 µM: HCT-15
inactive: OVCAR-4 12.4 µM | SNB-75 5.57 µM | NCI-H522 3.12 µM | DMS-114 3.01 µM | NCI-H226 7.5 µM | CCRF-CEM 4.48 µM | ACHN 12.1 µM | CAKI-1 4.36 µM | UO-31 10.4 µM | SN12C 7.71 µM | NCI-H460 3.47 µM | HCC 2998 6.32 µM | SNB-19 6.85 µM | SW-620 3.31 µM | RXF 393 5.89 µM | OVCAR-8 8.99 µM

O=C(NC12CC3CC(CC(C3)C1)C2)C(=O)c1c[nH]c2ccccc12
12.1 µM: HCT-15
inactive: OVCAR-4 16.3 µM | SNB-75 > 10 µM | NCI-H522 16.3 µM | DMS-114 18 µM | NCI-H226 > 10 µM | CCRF-CEM 16.4 µM | ACHN 15.5 µM | UO-31 20 µM | SN12C 16.5 µM | NCI-H460 12.1 µM | HCC 2998 14.8 µM | SNB-19 17.9 µM

Cc1cc2occ(C)c(=O)c2c2c1OC(C)(C)S2
> 100 µM: HCT-15
inactive: OVCAR-4 > 100 µM | SNB-75 88.5 µM | NCI-H522 47.6 µM | DMS-114 > 100 µM | NCI-H226 > 100 µM | CCRF-CEM 51.1 µM | ACHN > 100 µM | UO-31 > 100 µM | SN12C > 100 µM | NCI-H460 > 100 µM | HCC 2998 > 100 µM | SNB-19 > 100 µM | SW-620 > 100 µM | RXF 393 88.1 µM | OVCAR-8 > 100 µM

CCOC(=O)CC(NC(=O)c1nc[nH]c1[N+](=O)[O-])C(=O)OCC (configuration not stated)
78.5 µM: HCT-15
inactive: OVCAR-4 50.7 µM | SNB-75 > 100 µM | NCI-H522 48.9 µM | DMS-114 43.3 µM | NCI-H226 23 µM | CCRF-CEM 37.4 µM | ACHN 42.2 µM | CAKI-1 47 µM | UO-31 77.6 µM | SN12C 42.5 µM | NCI-H460 52 µM | HCC 2998 30.5 µM | SNB-19 56.6 µM | SW-620 37.2 µM | OVCAR-8 32.1 µM

COc1cc2c(c(OC)c1OC)-c1ccc(SC)c(=O)cc1[C@@H](NCc1cccc(C#N)c1)CC2
0.0239 µM: HCT-15
active: OVCAR-4 0.0075 µM | SNB-75 0.00516 µM | NCI-H522 0.0142 µM | DMS-114 0.0153 µM | NCI-H226 0.0226 µM | CCRF-CEM 0.0229 µM | ACHN 0.047 µM | CAKI-1 0.0075 µM | UO-31 0.308 µM | SN12C 0.0313 µM | NCI-H460 0.0268 µM | HCC 2998 0.0198 µM | SNB-19 0.045 µM | SW-620 0.0132 µM | RXF 393 0.00408 µM | OVCAR-8 0.0222 µM

COc1ccc2c(=O)c([Se]c3coc4cc(OC)ccc4c3=O)coc2c1
inactive: OVCAR-4 44.6 µM | SNB-75 20.8 µM | NCI-H522 > 100 µM | DMS-114 17.4 µM | NCI-H226 52 µM | CCRF-CEM 46.7 µM | ACHN 72.1 µM | CAKI-1 > 100 µM | UO-31 57.4 µM | SN12C 54.5 µM | NCI-H460 18.7 µM | HCC 2998 > 100 µM | SNB-19 > 100 µM | SW-620 > 100 µM | RXF 393 48.6 µM | OVCAR-8 41.7 µM
50.9 µM: HCT-15

CCOC(=O)C1Cc2ccc3c4c(ccc(c24)C1)CC(C(=O)OCC)C3
inactive: SNB-75 > 100 µM | NCI-H522 > 100 µM | DMS-114 > 100 µM | NCI-H226 > 100 µM | CCRF-CEM > 100 µM | ACHN > 100 µM | UO-31 > 100 µM | SN12C > 100 µM | HCC 2998 > 100 µM | SNB-19 > 100 µM | SW-620 > 100 µM | RXF 393 > 100 µM | OVCAR-8 > 100 µM
> 100 µM: HCT-15

O=C1CCN2CCC(=O)c3c2c(cc2ccccc32)N1
inactive: SNB-75 > 100 µM | NCI-H522 > 100 µM | DMS-114 > 100 µM | NCI-H226 > 100 µM | CCRF-CEM > 100 µM | ACHN > 100 µM | CAKI-1 > 100 µM | UO-31 75.5 µM | SN12C > 100 µM | NCI-H460 > 100 µM | HCC 2998 > 100 µM | SNB-19 > 100 µM | SW-620 > 100 µM | RXF 393 44.7 µM | OVCAR-8 > 100 µM
> 100 µM: HCT-15

COc1cc2c(cc1OC)C1(c3ccccc3)ON=C(c3ccccc3)N1CS2 (configuration not stated)
> 100 µM: HCT-15
inactive: OVCAR-4 > 100 µM | SNB-75 > 100 µM | NCI-H522 > 100 µM | DMS-114 > 100 µM | NCI-H226 > 100 µM | CCRF-CEM 39.3 µM | ACHN > 100 µM | CAKI-1 > 100 µM | UO-31 > 100 µM | SN12C > 100 µM | NCI-H460 > 100 µM | HCC 2998 > 100 µM | SNB-19 > 100 µM | SW-620 > 100 µM | RXF 393 63 µM

CCOC(=O)NC(=O)c1cn(CC(=O)NCC(=O)NCC(=O)NCCCN2CCN(CCCNC(=O)CNC(=O)CNC(=O)Cn3cc(C(=O)NC(=O)OCC)c(=O)[nH]c3=O)CC2)c(=O)[nH]c1=O
> 100 µM: HCT-15
inactive: SNB-75 > 100 µM | NCI-H522 > 100 µM | DMS-114 > 100 µM | CCRF-CEM > 100 µM | ACHN > 100 µM | CAKI-1 > 100 µM | UO-31 > 100 µM | SN12C > 100 µM | NCI-H460 > 100 µM | HCC 2998 > 100 µM | SNB-19 > 100 µM | SW-620 > 100 µM | OVCAR-8 > 100 µM

COC(=O)C1CCC(C)CC1=O (configuration not stated)
> 100 µM: HCT-15
inactive: OVCAR-4 > 100 µM | SNB-75 > 100 µM | NCI-H522 > 100 µM | DMS-114 > 100 µM | CCRF-CEM > 100 µM | ACHN > 100 µM | CAKI-1 > 100 µM | UO-31 > 100 µM | SN12C > 100 µM | NCI-H460 > 100 µM | HCC 2998 > 100 µM | SNB-19 > 100 µM | SW-620 > 100 µM | RXF 393 > 100 µM | OVCAR-8 > 100 µM

COC(=O)CCCCCOS(=O)(=O)c1ccc(C)cc1
inactive: SNB-75 > 100 µM | NCI-H522 > 100 µM | DMS-114 > 100 µM | CCRF-CEM > 100 µM | ACHN > 100 µM | UO-31 > 100 µM | SN12C > 100 µM | NCI-H460 > 100 µM | HCC 2998 > 100 µM | SNB-19 > 100 µM | SW-620 > 100 µM | RXF 393 > 100 µM | OVCAR-8 > 100 µM
> 100 µM: HCT-15

CCOC(=O)c1nc(-c2ccccc2)oc1OCC
inactive: OVCAR-4 > 100 µM | SNB-75 > 100 µM | NCI-H522 > 100 µM | DMS-114 > 100 µM | NCI-H226 > 100 µM | CCRF-CEM > 100 µM | SN12C > 100 µM | NCI-H460 > 100 µM | HCC 2998 > 100 µM | SNB-19 > 100 µM | SW-620 > 100 µM | RXF 393 > 100 µM | OVCAR-8 > 100 µM

COc1ccc(CN(O)C2C(CO)OC(n3cc(I)c(=O)[nH]c3=O)C2O)cc1 (configuration not stated)
inactive: OVCAR-4 > 100 µM | SNB-75 > 100 µM | NCI-H522 > 100 µM | DMS-114 > 100 µM | CCRF-CEM > 100 µM | ACHN > 100 µM | CAKI-1 > 100 µM | UO-31 > 100 µM | SN12C > 100 µM | NCI-H460 > 100 µM | HCC 2998 > 100 µM | SNB-19 > 100 µM | SW-620 > 100 µM | RXF 393 > 100 µM | OVCAR-8 > 100 µM
> 100 µM: HCT-15

O=N/N=c1\o[n-][n+](CCc2ccccc2)c1Cc1/c(=N/N=O)o[n-][n+]1CCc1ccccc1
inactive: OVCAR-4 16.8 µM | SNB-75 19 µM | NCI-H522 23.1 µM | NCI-H226 29.9 µM | BT-549 32.9 µM | CCRF-CEM > 100 µM | ACHN 31.4 µM | MCF7 70 µM | CAKI-1 > 100 µM | UO-31 > 100 µM | SN12C 34.5 µM | T47D 27.9 µM | NCI-H460 33.7 µM | HCC 2998 44.9 µM | SNB-19 28.2 µM | SW-620 89.7 µM | RXF 393 39.2 µM | OVCAR-8 21.7 µM
> 100 µM: HCT-15

Cc1ccc(F)c2[nH]c(-c3ccccc3)cc(=O)c12
inactive: OVCAR-4 > 70.5 µM | SNB-75 6.18 µM | NCI-H522 5.69 µM | NCI-H226 40.1 µM | BT-549 7.06 µM | CCRF-CEM 4.48 µM | ACHN 8.77 µM | MCF7 1.18 µM | CAKI-1 > 100 µM | UO-31 9.23 µM | SN12C 7.1 µM | T47D 11.3 µM | NCI-H460 5.32 µM | HCC 2998 11.9 µM | SNB-19 9.98 µM | SW-620 4.67 µM | RXF 393 3.58 µM | OVCAR-8 6.11 µM
1.64 µM: HCT-15
